Measured values published in patent US7767854B2, “N-substituted phenylacetamide derivative and pharmaceutical composition containing the same” (Dainippon Sumitomo Pharma Co., Ltd., priority 2005, dated 2010).

The compounds below were run on male Std: Wistar rats (assay: Pain test by plantar thermal stimuli (plantar test)). Details: Rattus norvegicus, 4 h, 50 μl of 0.03% (W/V) solution i.pl. into right hind-paw; 4 hours after administration; cut-off 25 seconds; read-out: % MPE (percent maximum possible effect, withdrawal latency).
Assay type: in vivo
Method: Experiment 1: Pain Test by Plantar Thermal Stimuli (Plantar Test)
In the present experiment, the analgesic effect of the compounds of the invention was evaluated by the measurements of withdrawal latency to noxious thermal stimuli, according to the methods of Hargreaves, et al., [Pain, 32, 77-88 (1988)] and Field, et al., [J. Pharmacol. Exp. Ther., 282, 1242-1246 (1997)].
In detail, the experiment was carried out using male Std: Wistar rats (4 rats/group; body weight, 170-220 g) and a plantar test device (Model 7370, Ugo Basile) with infrared beam as a heat source. The rat was put into an experimental cage that is an acrylic box whose bottom is made of glass and was habituated therein. Then, the infrared beam was radiated to the plantar surface of right hind-paw thereof through the floor glass, and the withdrawal latency was measured every 5 minutes, 3 times. The intension of the infrared beam was adjusted so that the pre-drug administration latency was about 10 seconds. The cut-off time was set at 25 seconds in order to prevent a paw burn. The average of the latencies was calculated, and then it was defined as the value of the pre-drug administration latency of the test compound.
Next day, 50 μl of each solution of the test compounds [the compounds of the invention, the compounds of the comparative Examples and capsaicin (Sigma, U.S.A.)] or 50 μl of vehicle solvent (reference) was given to a right hind-paw of the rat by intraplantar injection (i. pl.) using a micro-syringe. The test compound was dissolved in a saline solution containing 10% Tween 80 (Sigma, U.S.A) and 10% ethanol to give a 0.03% (W/V) solution. The saline solution containing 10% Tween 80 and 10% ethanol was used as reference. Four hours after i.pl. administration of each the test compound or the reference to the rats, the experiment mentioned above was carried out, and then the post-drug administration latency was measured. The analgesic effects thereof were calculated with the following formula, which was known as a percent maximum possible effect (% MPE). % MPE=[(the value of post-drug latency−the value of pre-drug latency)/(25*−the value of pre-drug latency)]×100 *: cut-off time

Compared with `CCCCC[C@H]1CC[C@@H](NC(=O)Cc2ccc(O)c(OC)c2)CC1` [Example 8], `COc1cc(CC(=O)N[C@H]2CC[C@H](CCCCF)CC2)ccc1O` [Example 99, N-[trans-4-(4-fluorobutyl)cyclohexyl]-2-(4-hydroxy-3-methoxyphenyl)acetamide] is lower in change in vivo at 300 µg/mL: 88.4% for the first, 55.8% for the second.

Going from `CCCC=C1CCC(NC(=O)Cc2ccc(O)c(OC)c2)CC1` (stereo not drawn) [Example 10, N-(4-butylidenecyclohexyl)-2-(4-hydroxy-3-methoxyphenyl)acetamide] to `CCC(CC)=C1CCC(NC(=O)Cc2ccc(O)c(OC)c2)CC1` (stereo not drawn) [Example 77], the change in vivo at 300 µg/mL falls from 89.4% to 78.6%.

Going from `COc1cc(CC(=O)N[C@H]2CC[C@H](CCC(C)C)CC2)ccc1O` [Example 26, 2-(4-hydroxy-3-methoxyphenyl)-N-[trans-4-(3-methylbutyl)cyclohexyl]acetamide] to `COc1cc(CC(=O)N[C@H]2CC[C@@H](CC(C)C)CC2)ccc1O` [Example 96, 2-(4-hydroxy-3-methoxyphenyl)-N-[cis-4-(2-methylpropyl)cyclohexyl]acetamide], the change in vivo at 300 µg/mL falls from 96.3% to 80.4%.

Compared with `CCCCCO[C@H]1CC[C@H](NC(=O)Cc2ccc(O)c(OC)c2)CC1` [Example 36], `CCCC(CCC)[C@H]1CC[C@H](NC(=O)Cc2ccc(O)c(OC)c2)CC1` [Example 85] is lower in change in vivo at 300 µg/mL: 50.5% for the first, 49.3% for the second.

First: COc1cc(CC(=O)N[C@H]2CC[C@H](CC=C(C)C)CC2)ccc1O [Example 42, 2-(4-hydroxy-3-methoxyphenyl)-N-[trans-4-(3-methyl-2-butenyl)cyclohexyl]acetamide]
Second: C/C=C\C[C@H]1CC[C@H](NC(=O)Cc2ccc(O)c(OC)c2)CC1 [Example 94, N-{trans-4-[(Z)-2-butenyl]cyclohexyl}-2-(4-hydroxy-3-methoxyphenyl)acetamide]
The change in vivo at 300 µg/mL of the first is higher: 85% for the first, 69.1% for the second.

Going from `C=C(C)/C=C/[C@H]1CC[C@H](NC(=O)Cc2ccc(O)c(OC)c2)CC1` [Example 72, 2-(4-hydroxy-3-methoxyphenyl)-N-{trans-4-[(E)-3-methyl-1,3-butadienyl]cyclohexyl}acetamide] to `COc1cc(CC(=O)N[C@H]2CC[C@@H](C=C(C)C)CC2)ccc1O` [Example 95, 2-(4-hydroxy-3-methoxyphenyl)-N-[cis-4-(2-methyl-1-propenyl)cyclohexyl]acetamide], the change in vivo at 300 µg/mL rises from 75.4% to 88.8%.

Going from `C/C=C\CC[C@H]1CC[C@H](NC(=O)Cc2ccc(O)c(OC)c2)CC1` [Example 73, 2-(4-hydroxy-3-methoxyphenyl)-N-{trans-4-[(Z)-3-pentenyl]cyclohexyl}acetamide] to `C/C=C/CC[C@H]1CC[C@H](NC(=O)Cc2ccc(O)c(OC)c2)CC1` [Example 75, 2-(4-hydroxy-3-methoxyphenyl)-N-{trans-4-[(E)-3-pentenyl]cyclohexyl}acetamide], the change in vivo at 300 µg/mL rises from 74.1% to 74.4%.

Compared with `C=CCC[C@H]1CC[C@H](NC(=O)Cc2ccc(O)c(OC)c2)CC1` [Example 74, N-[trans-4-(3-butenyl)cyclohexyl]-2-(4-hydroxy-3-methoxyphenyl)acetamide], `COc1cc(CC(=O)N[C@H]2CC[C@H](CC3CC3)CC2)ccc1O` [Example 100, N-(trans-4-cyclopropylmethylcyclohexyl)-2-(4-hydroxy-3-methoxyphenyl)acetamide] is lower in change in vivo at 300 µg/mL: 57.1% for the first, 44.5% for the second.

Compared with `COc1cc(CC(=O)NC2CCC(=C3CCCCC3)CC2)ccc1O` (stereo not drawn) [Example 76, N-(4-cyclohexylidenecyclohexyl)-2-(4-hydroxy-3-methoxyphenyl)acetamide], `COc1cc(CC(=O)NC2CCC(=C3CCCCCC3)CC2)ccc1O` (stereo not drawn) [Example 81] is higher in change in vivo at 300 µg/mL: 71% for the first, 94.4% for the second.

Compared with `CCCC(CCC)=C1CCC(NC(=O)Cc2ccc(O)c(OC)c2)CC1` (stereo not drawn) [Example 78], `COc1cc(CC(=O)NC2CCC(=C(C)C)CC2)ccc1O` (stereo not drawn) [Example 82, 2-(4-hydroxy-3-methoxyphenyl)-N-(4-isopropylidenecyclohexyl)acetamide] is lower in change in vivo at 300 µg/mL: 82.8% for the first, 68.4% for the second.

Compared with `COc1cc(CC(=O)NC2CCC(=C3CCC3)CC2)ccc1O` (stereo not drawn) [Example 79], `COc1cc(CC(=O)NC2CCC(=C3CCCC3)CC2)ccc1O` (stereo not drawn) [Example 80] is higher in change in vivo at 300 µg/mL: 33.6% for the first, 37% for the second.

Going from `COc1cc(CC(=O)N[C@H]2CC[C@H](C3CCCCC3)CC2)ccc1O` [Example 83, N-(trans-4-cyclohexylcyclohexyl)-2-(4-hydroxy-3-methoxyphenyl)acetamide] to `COc1cc(CC(=O)N[C@H]2CC[C@H](C3CCCCCC3)CC2)ccc1O` [Example 87], the change in vivo at 300 µg/mL rises from 77.4% to 80.1%.

Compared with `CCC(CC)[C@H]1CC[C@H](NC(=O)Cc2ccc(O)c(OC)c2)CC1` [Example 84], `CCC(CC)[C@H]1CC[C@@H](NC(=O)Cc2ccc(O)c(OC)c2)CC1` [Example 98, 2-(4-hydroxy-3-methoxyphenyl)-N-[cis-4-(3-pentyl)cyclohexyl]acetamide] is lower in change in vivo at 300 µg/mL: 76.9% for the first, 74.6% for the second.

Compared with `COc1cc(CC(=O)N[C@H]2CC[C@H](C3CCC3)CC2)ccc1O` [Example 86], `COc1cc(CC(=O)N[C@H]2CC[C@H](CC3CCC3)CC2)ccc1O` [Example 93, N-[trans-4-(cyclobutylmethyl)cyclohexyl]-2-(4-hydroxy-3-methoxyphenyl)acetamide] is higher in change in vivo at 300 µg/mL: 68.6% for the first, 69.7% for the second.

Compared with `CCC(CC)C1=CCC(NC(=O)Cc2ccc(O)c(OC)c2)CC1` (stereo not drawn) [Example 88, 2-(4-hydroxy-3-methoxyphenyl)-N-[4-(3-pentyl)-3-cyclohexenyl]acetamide], `CCCC(CCC)C1=CCC(NC(=O)Cc2ccc(O)c(OC)c2)CC1` (stereo not drawn) [Example 89, N-[4-(4-heptyl)-3-cyclohexenyl]-2-(4-hydroxy-3-methoxyphenyl)acetamide] is higher in change in vivo at 300 µg/mL: 95.5% for the first, 100% for the second.

First: COc1cc(CC(=O)N[C@H]2CC[C@H](C=C3CCC3)CC2)ccc1O [Example 91, N-[trans-4-(cyclobutylidenemethyl)-cyclohexyl]-2-(4-hydroxy-3-methoxyphenyl)acetamide]
Second: COc1cc(CC(=O)N[C@H]2CC[C@H](/C=C/CCF)CC2)ccc1O [Example 103]
The change in vivo at 300 µg/mL of the first is higher: 74.2% for the first, 36.7% for the second.

Going from `C/C=C(\CC)[C@H]1CC[C@@H](NC(=O)Cc2ccc(O)c(OC)c2)CC1` [Example 97, N-{cis-4-[(E)-1-ethyl-1-propenyl]-cyclohexyl}-2-(4-hydroxy-3-methoxyphenyl)acetamide] to `COc1cc(CC(=O)N[C@H]2CC[C@H](/C=C/CC(F)(F)F)CC2)ccc1O` [Example 102], the change in vivo at 300 µg/mL falls from 63.8% to 56.6%.

Compared with `COc1cc(CC(=O)NC2CCC3(CCCCC3)CC2)ccc1O` [Example 105, 2-(4-hydroxy-3-methoxyphenyl)-N-(spiro[5.5]undec-3-yl)acetamide], `CCC1(CC)CCC(NC(=O)Cc2ccc(O)c(OC)c2)CC1` [Example 106] is lower in change in vivo at 300 µg/mL: 63.4% for the first, 51.5% for the second.

Compound `CCCCC1(CC)CCC(NC(=O)Cc2ccc(O)c(OC)c2)CC1` (stereo not drawn) [Example 107] has a change in vivo at 300 µg/mL of 85.2%.

The compounds below were run on female CBA/JN mice (assay: Skin sensitization test (Local Lymph Node Assay with BrdU)). Details: 1 and 3% solutions in DMF on both auricles, 3 days.
Assay type: in vivo, mouse
Method: Experiment 4: Skin Sensitization Test (Local Lymph Node Assay)
The purpose of the present experiment is to investigate if each administered compound of the invention can induce allergic contact dermatitis. In detail, the skin sensitization effect of the compounds of the invention was examined using BrdU (bromodeoxyuridine) by LLNA (Local Lymph Node Assay).
In more detail, the test was carried out according to the method by Suda, A. et al. (Local lymph node assay with non-radioisotope alternative endpoints. J. Toxicol. Sci., 27(3):205-218, 2002). Namely, the compounds of the invention were dissolved in DMF (N,N-dimethylformamide) to prepare 1 and 3% solutions, which were applied to both auricles of female CBA/JN mice aged 9 weeks for consecutive 3 days (1st day to 3rd day)(25 μl/one-side ear, once a day)
As positive control drugs, DNCB (dinitrochlorobenzene, a potently sensitizing drug) and HCA (α-hexylcinnamaldehyde, a weakly sensitizing drug) were used. After the final application was finished (on 3rd day), ALZET Osmotic Pump containing 100 μl of 200 mg/mL BrdU (releasing rate: 0.5 μl/hour) was implanted into the ventral skin under pentobarbital anesthesia, and BrdU was exposed sustainedly. On 9th day from starting day to apply the compounds of the invention, the animals were euthanized by cervical dislocation, and parotid lymph nodes of both their ears were taken out. The nodes were weighed and homogenized in PBS to prepare a single cell suspension which was measured by a blood test device: ADVIA (Bayer) to count the number of the cells. Next, the cells were immunofluorescently stained with FITC-labeled anti-BrdU antibody using a BrdU Flow Kit (BD Biosciences), which were measured and analyzed using a flow cytometer: FACS Calibur (Becton Dickinson) to give BrdU-positive cell percentage. And then, the BrdU-positive cell percentage was multiplied by the number of the node cells to give the number of the BrdU-positive cells. Additionally, on each parameter, the average value for the test compound group was divided by the average value for the reference (solvent) group to give a stimulation Index (SI). We judged that the compound had skin sensitization activity when the SI of BrdU-positive cell number was 2 or more, in principle.

In the case of `CCCCC[C@H]1CC[C@@H](NC(=O)Cc2ccc(O)c(OC)c2)CC1` [Example 8], the “skin sensitization (SI of BrdU-positive cell number)” value (shortened to “skin sensitization”) was “weak skin sensitization”.
In the case of `CCCC=C1CCC(NC(=O)Cc2ccc(O)c(OC)c2)CC1` (stereo not drawn) [Example 10, N-(4-butylidenecyclohexyl)-2-(4-hydroxy-3-methoxyphenyl)acetamide], the “skin sensitization” value was “weak skin sensitization”.
`COc1cc(CC(=O)N[C@H]2CC[C@H](CCC(C)C)CC2)ccc1O` [Example 26, 2-(4-hydroxy-3-methoxyphenyl)-N-[trans-4-(3-methylbutyl)cyclohexyl]acetamide] was tested, and the “skin sensitization” value was “weak skin sensitization”.
In the case of `CCCCCO[C@H]1CC[C@H](NC(=O)Cc2ccc(O)c(OC)c2)CC1` [Example 36], the “skin sensitization” value was “weak skin sensitization”.
In the case of `COc1cc(CC(=O)N[C@H]2CC[C@H](CC=C(C)C)CC2)ccc1O` [Example 42, 2-(4-hydroxy-3-methoxyphenyl)-N-[trans-4-(3-methyl-2-butenyl)cyclohexyl]acetamide], the “skin sensitization” value was “weak skin sensitization”.
